The values that follow are results of earlier work, collected in patent US20110236538A1, “CHITIN DERIVATIVE AND NATURAL SWEETENER CONJUGATE FOR CONTROLLING INGESTED FAT IN HUMANS AND HAVING SWEETENING PROPERTIES” (priority 2008, published 2011).

For the data set the following is noted: successive lines = successive pKa of di- and trivalent acids.

Take `O=C(O)C(Cl)(Cl)Cl` [Trichloroacetic]: the “pKa (25° C.)” value is given as 0.70.
